In PubChem BioAssay AID328 (DTP/NCI, 2004) one finds T/C data, which are given here for 17 molecules.

Where “and” joins values, the source holds several entries; their conditions need not be identical. Equal entries are not always repeated. Toxic doses and inconclusive results are not listed.

This test has as its system BDF1 mice, P388 leukemia ip, median survival T/C. The test is described as follows: NCI In Vivo Anticancer Drug Screen. Data for tumor model P388 Leukemia (intraperitoneal) in B6D2F1 (BDF1) mice. The conditions noted are these: endpoint: median survival time, higher = longer survival. The essentials: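 T/C = treated-group survival ÷ vehicle-control survival; tumour transplanted into mice before dosing.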

[1] abbreviates: dose: 100.0 mg/kg/injection, schedule: Q04DX003 (ip), vehicle: saline sonified.
Setting [2] is: dose: 400.0 mg/kg/injection, schedule: Q04DX003 (ip), vehicle: saline sonified.
The mark [3] stands for this setting: dose: 100.0 mg/kg/injection, schedule: Q04DX003 (ip), vehicle: saline with Tween-80.
Setting [4] is: dose: 200.0 mg/kg/injection, schedule: Q04DX003 (ip), vehicle: saline with Tween-80.
[5] abbreviates: dose: 400.0 mg/kg/injection, schedule: Q04DX003 (ip), vehicle: saline with Tween-80.
The mark [6] stands for this setting: dose: 50.0 mg/kg/injection, schedule: Q01DX009 (ip), vehicle: saline with Tween-80.
[7] abbreviates: dose: 100.0 mg/kg/injection, schedule: Q01DX009 (ip), vehicle: saline with Tween-80.
The mark [8] stands for this setting: dose: 200.0 mg/kg/injection, schedule: Q01DX009 (ip), vehicle: saline with Tween-80.
Setting [9] is: dose: 25.0 mg/kg/injection, schedule: Q01DX009 (ip), vehicle: saline.
The mark [10] stands for this setting: dose: 50.0 mg/kg/injection, schedule: Q01DX009 (ip), vehicle: saline.
The mark [11] stands for this setting: dose: 100.0 mg/kg/injection, schedule: Q01DX009 (ip), vehicle: saline.
The mark [12] stands for this setting: dose: 100.0 mg/kg/injection, schedule: Q04DX003 (ip), vehicle: saline.
[13] abbreviates: dose: 200.0 mg/kg/injection, schedule: Q04DX003 (ip), vehicle: saline.
[14] abbreviates: dose: 400.0 mg/kg/injection, schedule: Q04DX003 (ip), vehicle: saline.

Consider `CC(C)C1=CC2=C[C@H](O)[C@H]3C(C)(C)CCC[C@]3(C)C2=C(O)C1=O`, for which the T/C is, setting by setting: (dose: 2.0 mg/kg/injection, schedule: Q01DX010 (ip), vehicle: carboxymethylcellulose (CMC)) 100 % of control; (dose: 2.2 mg/kg/injection, schedule: Q01DX010 (ip), vehicle: carboxymethylcellulose (CMC)) 112 % of control; (dose: 3.3 mg/kg/injection, schedule: Q01DX010 (ip), vehicle: carboxymethylcellulose (CMC)) 116 % of control; (dose: 5.0 mg/kg/injection, schedule: Q01DX010 (ip), vehicle: carboxymethylcellulose (CMC)) 120 % of control; (dose: 10.0 mg/kg/injection, schedule: Q01DX010 (ip), vehicle: carboxymethylcellulose (CMC)) 100 % of control; (dose: 10.0 mg/kg/injection, schedule: Q01DX010 (ip), vehicle: other) 115 % of control. The T/C (dose: 20.0 mg/kg/injection, schedule: Q01DX010 (ip), vehicle: carboxymethylcellulose (CMC)) is 110 % of control.
`O=C(O)c1cc(C(Cl)(Cl)Cl)ccc1C(Cl)(Cl)Cl`: the T/C reads like this: under setting [1], 95 % of control; under setting [2], 104 % of control.
As to `C=C(C)C(N)C(=O)O` (configuration not stated), the T/C runs as follows: under setting [3], 118 % of control; under setting [4], 104 % of control; under setting [5], 118 % of control.
As to `BrCC[N+]12CC[N+](CCBr)(CC1)C2`, the T/C is 112 % of control (dose: 12.5 mg/kg/injection, schedule: Q01DX009 (ip), vehicle: saline with Tween-80); 105 % of control (dose: 25.0 mg/kg/injection, schedule: Q01DX009 (ip), vehicle: saline with Tween-80); 110 % of control (dose: 25.0 mg/kg/injection, schedule: Q04DX003 (ip), vehicle: water); 116 % of control (dose: 50.0 mg/kg/injection, schedule: Q04DX003 (ip), vehicle: water); 172 % of control (dose: 400.0 mg/kg/injection, schedule: Q04DX003 (ip), vehicle: water).
For the molecule `CC1CN(Cc2ccc([N+](=O)[O-])cc2)CC(C)N1N` (configuration not stated), the T/C was 96 % of control (dose: 3.12 mg/kg/injection, schedule: Q04DX003 (ip), vehicle: saline with Tween-80); 116 % of control (dose: 6.25 mg/kg/injection, schedule: Q04DX003 (ip), vehicle: saline with Tween-80); 107 % of control (dose: 12.5 mg/kg/injection, schedule: Q04DX003 (ip), vehicle: saline with Tween-80); 107 % of control (dose: 25.0 mg/kg/injection, schedule: Q04DX003 (ip), vehicle: saline with Tween-80).
For `[O-][n+]1c(CCl)nc2ccccc2c1-c1ccccc1F`, the T/C under setting [6] is 118 % of control and the T/C under setting [7] was 105 % of control.
With `CCCCCCCCCCC(CCCCCCCCCC)CCCCCCCCC(CCCCCCCCCC)CCCCCCCCCC`, the T/C by setting is: (dose: 100.0 mg/kg/injection, schedule: Q04DX003 (ip), vehicle: Klucel (hydroxypropylcellulose) (HPC)) 108 % of control; (dose: 200.0 mg/kg/injection, schedule: Q04DX003 (ip), vehicle: Klucel (hydroxypropylcellulose) (HPC)) 93 % of control; (dose: 400.0 mg/kg/injection, schedule: Q04DX003 (ip), vehicle: Klucel (hydroxypropylcellulose) (HPC)) 97 % of control.
For the molecule `CC1(C)c2ccccc2C2C1C1(Cl)C(=O)C2(Cl)C(Cl)=C1Cl` (configuration not stated), the T/C is, setting by setting: under setting [1], 100 % of control; (dose: 200.0 mg/kg/injection, schedule: Q04DX003 (ip), vehicle: saline sonified) 95 % of control; under setting [2], 100 % of control.
For `CCOC(=O)N1CCN(CCCCCOc2ccccc2C2CCCCC2)CC1`, the T/C is, setting by setting: under setting [6], 111 % of control; under setting [7], 120 % of control.
As for `FC(F)(F)c1nc2nc(Br)c(Br)nc2[nH]1`, the T/C under setting [7] is 100 % of control, the T/C under setting [3] is 87 % of control, the T/C under setting [8] was 90 % of control and the T/C under setting [5] is 91 % of control.
For `NC(=O)c1cc(OCc2ccccc2)nc2nc(Cl)nc(N)c12`, the T/C is, setting by setting: under setting [6], 100 % of control; under setting [7], 96 % of control; under setting [8], 110 % of control.
For the molecule `O=C1c2ccccc2C(=O)c2c(O)ccc(O)c21`, the T/C is 104 % of control under setting [7]; 109 % of control under setting [8]; 109 % of control (dose: 400.0 mg/kg/injection, schedule: Q01DX009 (ip), vehicle: saline with Tween-80).
Regarding `CCc1c(/C=C2/OC(=O)NC2=O)[nH]c(=S)[nH]c1=O`, the T/C under setting [3] was 100 % of control, the T/C under setting [4] was 91 % of control and the T/C under setting [5] was 104 % of control.
With `COc1ccc(Cc2c3ccccc3cc[n+]2C)cc1Oc1ccc(Cc2c3ccccc3cc[n+]2C)cc1`, the T/C by setting is: (dose: 0.78 mg/kg/injection, schedule: Q01DX009 (ip), vehicle: saline) 100 % of control; (dose: 1.56 mg/kg/injection, schedule: Q01DX009 (ip), vehicle: saline) 101 % of control.
Consider `O=c1[nH]c(=O)n(C2CC(O)C(CO)O2)cc1F` (configuration not stated), for which the T/C reads like this: (dose: 5.0 mg/kg/injection, schedule: Q01DX010 (ip), vehicle: saline) 113 % of control; (dose: 15.0 mg/kg/injection, schedule: Q03HX024 (ip), vehicle: saline) 172 % of control; (dose: 22.0 mg/kg/injection, schedule: Q03HX024 (ip), vehicle: saline) 186 % of control; under setting [9], 186 % of control; (dose: 33.0 mg/kg/injection, schedule: Q01DX009 (ip), vehicle: saline) 173 % of control; (dose: 34.0 mg/kg/injection, schedule: Q03HX024 (ip), vehicle: saline) 200 % of control. The T/C reads like this: (dose: 40.0 mg/kg/injection, schedule: Q01DX009 (ip), vehicle: water) 168 % of control and 172 % of control and 200 % of control; (dose: 44.0 mg/kg/injection, schedule: Q01DX009 (ip), vehicle: saline) 166 % of control; (dose: 49.0 mg/kg/injection, schedule: Q01DX009 (ip), vehicle: saline) 202 % of control; under setting [10], 218 % of control; (dose: 50.0 mg/kg/injection, schedule: Q03HX024 (ip), vehicle: saline) 215 % of control; (dose: 60.0 mg/kg/injection, schedule: Q01DX009 (ip), vehicle: water) 190 % of control (2×) and 195 % of control. Moreover, the T/C (dose: 67.0 mg/kg/injection, schedule: Q01DX009 (ip), vehicle: saline) was 185 % of control; the T/C (dose: 73.0 mg/kg/injection, schedule: Q01DX009 (ip), vehicle: saline) was 202 % of control; the T/C (dose: 74.0 mg/kg/injection, schedule: Q01DX009 (ip), vehicle: saline) was 169 % of control and 183 % of control and 186 % of control; the T/C (dose: 80.0 mg/kg/injection, schedule: Q01DX009 (ip), vehicle: water) was 190 % of control and 200 % of control and 222 % of control; the T/C under setting [11] was 109 % of control and 206 % of control; the T/C (dose: 155.0 mg/kg/injection, schedule: Q04DX004 (ip), vehicle: saline) was 157 % of control. The T/C runs as follows: (dose: 165.0 mg/kg/injection, schedule: Q01DX009 (ip), vehicle: saline) 109 % of control; (dose: 205.0 mg/kg/injection, schedule: Q01DX001 (ip), vehicle: saline) 124 % of control; (dose: 233.0 mg/kg/injection, schedule: Q04DX004 (ip), vehicle: saline) 170 % of control; (dose: 350.0 mg/kg/injection, schedule: Q04DX004 (ip), vehicle: saline) 190 % of control; (dose: 525.0 mg/kg/injection, schedule: Q04DX004 (ip), vehicle: saline) 110 % of control; (dose: 685.0 mg/kg/injection, schedule: Q01DX001 (ip), vehicle: saline) 157 % of control. The T/C (dose: 1025.0 mg/kg/injection, schedule: Q01DX001 (ip), vehicle: saline) was 172 % of control.
For `C/C(CCC(=O)O)=N/O`, the T/C is 110 % of control under setting [11]; 104 % of control under setting [12]; 120 % of control (dose: 200.0 mg/kg/injection, schedule: Q01DX009 (ip), vehicle: saline); 108 % of control under setting [13]; 116 % of control under setting [14].
In the case of `C#CC(C)OCC(O)CCl` (configuration not stated), the T/C by setting is: under setting [9], 100 % of control; under setting [10], 118 % of control; under setting [11], 109 % of control; under setting [12], 108 % of control; under setting [13], 104 % of control; under setting [14], 108 % of control.
